Key:
MDAMB231 cell line = experiment: Cytotoxicity, cell count method; type: cell-based, human; conditions: Homo sapiens, MDA-MB-231, MDAMB231, 72 hours of incubation
Protocol: The anti-tumor activity of the compounds of the present invention was evaluated as the effect on the proliferation and survival of tumor cells by counting the number of living cells in presence or absence of the compounds ("cell count method"), and as the effect on the viability and metabolic activity of the cells, by using particular substrates that are converted by cellular enzymes into coloured or luminescent products, proportionally with metabolic activity and state of the cell, such as the MTS tetrazolium compound ("MTS method") or luciferin ("ATP-based method") respectively.
Cells were seeded at 3 to 5 x 10^4 cells/well density depending on cell lines and maintained at 37°C in 5% CO2. After 24 hours cells were treated with ascending concentrations of the investigational compounds and the reference (5-fluoro-Uracyl) in a range from 0 to 100 µM. Compounds were dissolved in DMSO which final concentration in each well was 0.5% v:v. After 72 h of incubation with compounds, the cells were detached with trypsin and re-suspended in 1 ml of complete medium; the cell number was evaluated using a Z2 Coulter Counter ("cell count method") (Attallah and Johnson, A simple highly sensitive methods for the determination of cell viability using an electronic particle analyzer, Coulter counter J. Immunol. Methods. 1981, 41, 155; Leonardi et al., Activated kinase screening identifies the IKBKE oncogene as a positive regulator of autophagy. Autophagy, 2019, 15, 312). Alternatively, after the 72 hours of incubation with compounds, the MTS solution (CellTiter 96® AQueous One Solution Cell Proliferation Assay) is added to each well and absorbance at 490 nm wavelength is read after 2 hours of incubation ("MTS method"). Results in Tables 8-13, 17, 18 were obtained with the cell count method. Results in Tables 14-15 were obtained with the MTS method. Results in Table 16 were obtained with ATP-based method.

DDX3X = DDX3X (Homo sapiens, UniProt O00571); experiment: Helicase assay (unwinding of 18/36mer dsRNA); type: biochemical; design: host or cells: 293T cells (transient transfection, anti-HA immunoprecipitation, protein kept on beads); conditions: 50, 250 and 500 µM, in presence of ATP
Protocol: The DDX3X protein was obtained by immunoprecipitation from 293T cells (3x10^5) were seeded in 6-well plates and, after 24h, transfected with 1 µg of HA-DDX3 (Addgene plasmid # 44975) by using the Lipofectamine reagent (Thermo Fischer Scientific). After 36 h, cells were lysed in NP-40 Lysis Buffer (20 mM HEPES pH=7.5, 10 mM EGTA pH=8, 40 mM β-glycerolphosphate, 1% NP40, 2.5 mM MgCl2, 2 mM Orthovanadate, 2 mM NaF, 1 mM DTT, and 1X protease inhibitors mixture) and 2 mg of proteins were immunoprecipitated with anti-HA antibodies (Covance) in NP40 lysis buffer. Immunoprecipitated samples were washed twice with lysis buffer and one time in helicase reaction buffer (50 mM Tris HCl pH=8, 1 mM DTT, 5% glycerol, 10 mM MgCl2). Beads were then resuspended in 100 µl in helicase reaction buffer. […]
Ultimately, reactions were performed in a final volume 100 µl of helicase reaction buffer plus ATP 4 mM, 30 µl of beads used to immunoprecipitate HA-DDX3X, 20 nM of 18/36mer dsRNA and 100 nM of competitor at 37°C for 1 hour and stopped by adding 10 µl of a stopping solution (EDTA 60 mM pH=8, 40% glycerol, 0.6% SDS, 1% Orange G). […] Quantification of the ssRNA was performed by the ImageJ software (version 1.53, NIH). […]

[1] = Dose estimation by allometric relationship (PAD, HED); conditions: mouse models
Source text: Based on pharmacokinetic studies and efficacy in vivo, it is possible to estimate a dosage in humans by allometric relationship (USFDA. Guidance for Industry: Estimating the Maximum Safe Starting Dose in Adult Healthy Volunteer. Rockville, MD: US Food and Drug Administration; 2005). […] The human equivalent dose (HED) can be estimated according with the FDA guidelines by means of the following formula: HED = animal dose × (((animal weight)/(human weight)))^((1−0.67)) [formula]
Based on PAD in mouse models, the HED can be estimated as 1.8 mg/(Kg·day) considering a mouse average weight of 30 g and an adult human body weight of 60 Kg.

DDX3X, sequence (O00571 whole entry): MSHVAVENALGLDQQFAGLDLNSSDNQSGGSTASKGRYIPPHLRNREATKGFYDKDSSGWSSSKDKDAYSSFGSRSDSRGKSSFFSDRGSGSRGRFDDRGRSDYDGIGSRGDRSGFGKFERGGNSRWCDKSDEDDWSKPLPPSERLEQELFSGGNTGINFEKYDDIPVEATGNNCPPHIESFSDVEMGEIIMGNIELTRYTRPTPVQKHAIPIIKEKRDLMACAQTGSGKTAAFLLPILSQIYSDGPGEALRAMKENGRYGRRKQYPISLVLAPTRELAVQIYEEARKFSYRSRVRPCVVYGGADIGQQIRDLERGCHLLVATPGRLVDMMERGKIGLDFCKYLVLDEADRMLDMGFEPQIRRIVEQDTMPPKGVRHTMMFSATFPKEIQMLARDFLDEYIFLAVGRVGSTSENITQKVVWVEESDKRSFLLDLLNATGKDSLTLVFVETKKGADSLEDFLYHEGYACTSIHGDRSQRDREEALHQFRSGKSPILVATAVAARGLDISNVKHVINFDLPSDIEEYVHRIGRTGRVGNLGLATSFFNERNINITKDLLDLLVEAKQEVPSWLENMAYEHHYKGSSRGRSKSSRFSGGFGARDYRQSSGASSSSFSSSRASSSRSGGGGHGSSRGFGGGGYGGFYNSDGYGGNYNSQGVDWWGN

SMILES: CCCCc1cn(-c2ccc(-c3nnc(-c4ccccc4C(F)(F)F)o3)cc2)nn1 [Compound 5]
- IC50 (MDAMB231 cell line): 580 nM
- inhibitory effect on DDX3X helicase activity (DDX3X): inhibitory effect on DDX3X helicase activity
- pharmacologically active dose (PAD) [1]: 22.5 mg·kg-1·day-1

Source: patent EP4050002A1, “ANTI-PROLIFERATIVE AGENTS” (First Health Pharmaceuticals B.V., priority 2021, dated 2022)
